Results as given in ChEMBL document CHEMBL4649991.
“And” between values parts separate entries of the source, which are not always exact repeats. Identical values can stand only once.

Columns and labels:
[1] = target: Bromodomain-containing protein 4 (Homo sapiens) (UniProt O60885); assay: Alphascreen assay. Domain start/stop: N44-E168; details: Compound concentration 25.0 uM, Protein concentration 6.25 uM
[2] = target: Bromodomain-containing protein 9 (Homo sapiens) (UniProt Q9H8M2); assay: Alphascreen assay. Domain start/stop: L14-Q143; details: Compound concentration 4.0 uM, Protein concentration 5.0 uM
Peregrin (Homo sapiens) [3] = target: T1, Peregrin (Homo sapiens) (UniProt P55201); assay: Alphascreen assay. Domain start/stop: M626-G740; details: Protein concentration 50.0 uM
T1 sequence (whole entry): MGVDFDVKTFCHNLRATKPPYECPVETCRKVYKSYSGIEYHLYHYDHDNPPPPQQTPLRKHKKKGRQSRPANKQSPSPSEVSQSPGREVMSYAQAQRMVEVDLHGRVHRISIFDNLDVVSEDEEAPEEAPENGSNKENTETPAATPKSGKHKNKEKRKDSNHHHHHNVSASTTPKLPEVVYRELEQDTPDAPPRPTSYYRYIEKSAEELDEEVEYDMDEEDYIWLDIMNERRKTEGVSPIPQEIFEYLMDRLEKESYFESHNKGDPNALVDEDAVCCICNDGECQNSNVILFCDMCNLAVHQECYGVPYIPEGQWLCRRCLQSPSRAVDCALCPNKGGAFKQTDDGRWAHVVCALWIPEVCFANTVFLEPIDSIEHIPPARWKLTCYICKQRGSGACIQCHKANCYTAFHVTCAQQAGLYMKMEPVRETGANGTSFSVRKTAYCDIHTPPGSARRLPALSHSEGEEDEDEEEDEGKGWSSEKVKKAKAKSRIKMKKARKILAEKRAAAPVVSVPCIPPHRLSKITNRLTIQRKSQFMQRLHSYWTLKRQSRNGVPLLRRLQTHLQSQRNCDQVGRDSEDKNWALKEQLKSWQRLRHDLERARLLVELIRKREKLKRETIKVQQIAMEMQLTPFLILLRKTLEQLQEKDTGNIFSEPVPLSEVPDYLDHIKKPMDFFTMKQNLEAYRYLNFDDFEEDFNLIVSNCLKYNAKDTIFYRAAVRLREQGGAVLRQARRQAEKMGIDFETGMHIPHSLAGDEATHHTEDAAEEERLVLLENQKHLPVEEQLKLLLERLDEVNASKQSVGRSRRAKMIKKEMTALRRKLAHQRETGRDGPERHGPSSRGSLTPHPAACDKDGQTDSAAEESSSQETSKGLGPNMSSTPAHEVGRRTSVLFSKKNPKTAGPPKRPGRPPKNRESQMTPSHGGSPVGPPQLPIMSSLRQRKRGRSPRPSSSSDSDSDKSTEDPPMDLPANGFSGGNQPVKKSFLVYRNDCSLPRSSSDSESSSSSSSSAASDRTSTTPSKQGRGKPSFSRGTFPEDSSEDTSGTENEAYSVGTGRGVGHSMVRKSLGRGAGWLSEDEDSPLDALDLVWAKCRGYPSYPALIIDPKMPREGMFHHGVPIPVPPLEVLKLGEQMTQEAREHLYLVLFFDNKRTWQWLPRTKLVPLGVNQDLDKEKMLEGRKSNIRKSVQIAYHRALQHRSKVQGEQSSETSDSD

[4] = target: E3 ubiquitin-protein ligase TRIM33 (Homo sapiens) (UniProt Q9UPN9); assay: Thermal Shift Assay. Domain start/stop: D882-P1073; details: Compound concentration 10.0 uM, Protein concentration 2.0 uM
[5] = target: Nucleosome-remodeling factor subunit BPTF (Homo sapiens) (UniProt Q12830)
Description: Alphascreen assay. Domain start/stop: S2791-H2911

[6] = target: Chromatin remodeling regulator CECR2 (Homo sapiens) (UniProt Q9BXF3); details: Compound concentration 4.0 uM, Protein concentration 19.0 uM
[7] = target: PH-interacting protein (Homo sapiens) (UniProt Q8WWQ0); details: Compound concentration 50.0 uM, Protein concentration 0.025 uM
[8] = target: Histone-lysine N-methyltransferase ASH1L (Homo sapiens) (UniProt Q9NR48); details: Compound concentration 10.0 uM, Protein concentration 2.0 uM
[9] = target: ATPase family AAA domain-containing protein 2 (Homo sapiens) (UniProt Q6PL18); details: Compound concentration 10.0 uM, Protein concentration 2.0 uM
[10] = target: ATPase family AAA domain-containing protein 2B (Homo sapiens) (UniProt Q9ULI0); details: Compound concentration 10.0 uM, Protein concentration 2.0 uM
[11] = target: Bromodomain adjacent to zinc finger domain protein 1A (Homo sapiens) (UniProt Q9NRL2); details: Compound concentration 10.0 uM, Protein concentration 2.0 uM
[12] = target: Tyrosine-protein kinase BAZ1B (Homo sapiens) (UniProt Q9UIG0); details: Compound concentration 10.0 uM, Protein concentration 2.0 uM
[13] = target: Bromodomain adjacent to zinc finger domain protein 2A (Homo sapiens) (UniProt Q9UIF9); details: Compound concentration 10.0 uM, Protein concentration 2.0 uM
[14] = target: Bromodomain adjacent to zinc finger domain protein 2B (Homo sapiens) (UniProt Q9UIF8); details: Compound concentration 10.0 uM, Protein concentration 2.0 uM
[15] = target: Nucleosome-remodeling factor subunit BPTF (Homo sapiens) (UniProt Q12830); details: Compound concentration 10.0 uM, Protein concentration 2.0 uM
[16] = target: Bromodomain-containing protein 1 (Homo sapiens) (UniProt O95696); details: Compound concentration 10.0 uM, Protein concentration 2.0 uM
[17] = target: Bromodomain-containing protein 2 (Homo sapiens) (UniProt P25440); details: Compound concentration 10.0 uM, Protein concentration 2.0 uM
[18] = target: Bromodomain-containing protein 2 (Homo sapiens) (UniProt P25440); details: Compound concentration 10.0 uM, Protein concentration 2.0 uM; remark: listed apart in the source
[19] = target: Bromodomain-containing protein 3 (Homo sapiens) (UniProt Q15059); details: Compound concentration 10.0 uM, Protein concentration 2.0 uM
[20] = target: Bromodomain-containing protein 3 (Homo sapiens) (UniProt Q15059); details: Compound concentration 10.0 uM, Protein concentration 2.0 uM; remark: listed apart in the source
[21] = target: Bromodomain-containing protein 4 (Homo sapiens) (UniProt O60885); details: Compound concentration 10.0 uM, Protein concentration 2.0 uM
[22] = target: Bromodomain-containing protein 7 (Homo sapiens) (UniProt Q9NPI1); details: Compound concentration 10.0 uM, Protein concentration 2.0 uM
[23] = target: Bromodomain-containing protein 9 (Homo sapiens) (UniProt Q9H8M2); details: Compound concentration 10.0 uM, Protein concentration 2.0 uM
[24] = target: Bromodomain testis-specific protein (Homo sapiens) (UniProt Q58F21); details: Compound concentration 10.0 uM, Protein concentration 2.0 uM
[25] = target: Bromodomain testis-specific protein (Homo sapiens) (UniProt Q58F21); details: Compound concentration 10.0 uM, Protein concentration 2.0 uM; remark: listed apart in the source
Peregrin (Homo sapiens) [26] = target: T1, Peregrin (Homo sapiens); details: Compound concentration 10.0 uM, Protein concentration 2.0 uM
[27] = target: Bromodomain and PHD finger-containing protein 3 (Homo sapiens) (UniProt Q9ULD4); details: Compound concentration 10.0 uM, Protein concentration 2.0 uM
[28] = target: Bromodomain and WD repeat-containing protein 1 (Homo sapiens) (UniProt Q9NSI6); details: Compound concentration 10.0 uM, Protein concentration 2.0 uM
[29] = target: Bromodomain and WD repeat-containing protein 3 (Homo sapiens) (UniProt Q6RI45); details: Compound concentration 10.0 uM, Protein concentration 2.0 uM
[30] = target: Chromatin remodeling regulator CECR2 (Homo sapiens) (UniProt Q9BXF3); details: Compound concentration 10.0 uM, Protein concentration 2.0 uM
[31] = target: Chromatin remodeling regulator CECR2 (Homo sapiens) (UniProt Q9BXF3); details: Compound concentration 10.0 uM, Protein concentration 2.0 uM; remark: listed apart in the source
[32] = target: CREB-binding protein (Homo sapiens) (UniProt Q92793); details: Compound concentration 10.0 uM, Protein concentration 2.0 uM
[33] = target: Histone acetyltransferase p300 (Homo sapiens) (UniProt Q09472); details: Compound concentration 10.0 uM, Protein concentration 2.0 uM
[34] = target: Histone acetyltransferase KAT2A (Homo sapiens) (UniProt Q92830); details: Compound concentration 10.0 uM, Protein concentration 2.0 uM
[35] = target: Histone acetyltransferase KAT2B (Homo sapiens) (UniProt Q92831); details: Compound concentration 10.0 uM, Protein concentration 2.0 uM
[36] = target: Histone-lysine N-methyltransferase 2A (Homo sapiens) (UniProt Q03164); details: Compound concentration 10.0 uM, Protein concentration 2.0 uM
[37] = target: Protein polybromo-1 (Homo sapiens) (UniProt Q86U86); details: Compound concentration 10.0 uM, Protein concentration 2.0 uM
[38] = target: Protein polybromo-1 (Homo sapiens) (UniProt Q86U86); details: Compound concentration 10.0 uM, Protein concentration 2.0 uM; remark: listed apart in the source
[39] = target: Protein polybromo-1 (Homo sapiens) (UniProt Q86U86); details: Compound concentration 10.0 uM, Protein concentration 2.0 uM; remark: listed apart in the source
[40] = target: Protein polybromo-1 (Homo sapiens) (UniProt Q86U86); details: Compound concentration 10.0 uM, Protein concentration 2.0 uM; remark: listed apart in the source
[41] = target: Protein polybromo-1 (Homo sapiens) (UniProt Q86U86); details: Compound concentration 10.0 uM, Protein concentration 2.0 uM; remark: listed apart in the source
[42] = target: Protein polybromo-1 (Homo sapiens) (UniProt Q86U86); details: Compound concentration 10.0 uM, Protein concentration 2.0 uM; remark: listed apart in the source
[43] = target: PH-interacting protein (Homo sapiens) (UniProt Q8WWQ0); details: Compound concentration 10.0 uM, Protein concentration 2.0 uM
[44] = target: SWI/SNF-related matrix-associated actin-dependent regulator of chromatin subfamily A member 2 (Homo sapiens) (UniProt P51531); details: Compound concentration 10.0 uM, Protein concentration 2.0 uM
[45] = target: SWI/SNF-related matrix-associated actin-dependent regulator of chromatin subfamily A member 4 (Homo sapiens) (UniProt P51532); details: Compound concentration 10.0 uM, Protein concentration 2.0 uM
[46] = target: Nuclear body protein SP140 (Homo sapiens) (UniProt Q13342); details: Compound concentration 10.0 uM, Protein concentration 2.0 uM
[47] = target: Nuclear body protein SP140-like protein (Homo sapiens) (UniProt Q9H930); details: Compound concentration 10.0 uM, Protein concentration 2.0 uM
[48] = target: Transcription initiation factor TFIID subunit 1 (Homo sapiens) (UniProt P21675); details: Compound concentration 10.0 uM, Protein concentration 2.0 uM
[49] = target: Transcription initiation factor TFIID subunit 1 (Homo sapiens) (UniProt P21675); details: Compound concentration 10.0 uM, Protein concentration 2.0 uM; remark: listed apart in the source
[50] = target: Transcription initiation factor TFIID subunit 1-like (Homo sapiens) (UniProt Q8IZX4); details: Compound concentration 10.0 uM, Protein concentration 2.0 uM
[51] = target: Transcription initiation factor TFIID subunit 1-like (Homo sapiens) (UniProt Q8IZX4); details: Compound concentration 10.0 uM, Protein concentration 2.0 uM; remark: listed apart in the source
[52] = target: Transcription intermediary factor 1-alpha (Homo sapiens) (UniProt O15164); details: Compound concentration 10.0 uM, Protein concentration 2.0 uM
[53] = target: Transcription intermediary factor 1-beta (Homo sapiens) (UniProt Q13263); details: Compound concentration 10.0 uM, Protein concentration 2.0 uM
Peregrin (Homo sapiens) [54] = target: T1, Peregrin (Homo sapiens); details: Compound concentration 10.0 uM, Protein concentration 2.0 uM; remark: listed apart in the source

Sequence of Bromodomain-containing protein 9 (Homo sapiens) (Q9H8M2 whole entry): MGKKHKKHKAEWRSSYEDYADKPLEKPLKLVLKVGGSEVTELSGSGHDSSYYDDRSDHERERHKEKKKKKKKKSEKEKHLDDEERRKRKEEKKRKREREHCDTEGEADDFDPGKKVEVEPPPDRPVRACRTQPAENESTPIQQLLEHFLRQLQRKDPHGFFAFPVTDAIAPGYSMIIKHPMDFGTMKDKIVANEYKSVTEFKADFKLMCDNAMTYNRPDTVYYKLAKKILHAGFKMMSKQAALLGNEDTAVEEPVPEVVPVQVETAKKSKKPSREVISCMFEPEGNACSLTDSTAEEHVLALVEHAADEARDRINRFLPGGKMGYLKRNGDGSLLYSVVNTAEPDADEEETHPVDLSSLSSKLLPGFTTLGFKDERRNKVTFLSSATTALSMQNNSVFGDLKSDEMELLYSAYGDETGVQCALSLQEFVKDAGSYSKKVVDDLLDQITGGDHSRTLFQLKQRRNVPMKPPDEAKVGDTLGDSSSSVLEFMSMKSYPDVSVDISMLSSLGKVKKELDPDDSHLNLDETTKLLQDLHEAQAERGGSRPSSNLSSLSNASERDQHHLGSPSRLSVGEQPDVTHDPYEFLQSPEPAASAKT
Sequence of Protein polybromo-1 (Homo sapiens) (Q86U86 whole entry): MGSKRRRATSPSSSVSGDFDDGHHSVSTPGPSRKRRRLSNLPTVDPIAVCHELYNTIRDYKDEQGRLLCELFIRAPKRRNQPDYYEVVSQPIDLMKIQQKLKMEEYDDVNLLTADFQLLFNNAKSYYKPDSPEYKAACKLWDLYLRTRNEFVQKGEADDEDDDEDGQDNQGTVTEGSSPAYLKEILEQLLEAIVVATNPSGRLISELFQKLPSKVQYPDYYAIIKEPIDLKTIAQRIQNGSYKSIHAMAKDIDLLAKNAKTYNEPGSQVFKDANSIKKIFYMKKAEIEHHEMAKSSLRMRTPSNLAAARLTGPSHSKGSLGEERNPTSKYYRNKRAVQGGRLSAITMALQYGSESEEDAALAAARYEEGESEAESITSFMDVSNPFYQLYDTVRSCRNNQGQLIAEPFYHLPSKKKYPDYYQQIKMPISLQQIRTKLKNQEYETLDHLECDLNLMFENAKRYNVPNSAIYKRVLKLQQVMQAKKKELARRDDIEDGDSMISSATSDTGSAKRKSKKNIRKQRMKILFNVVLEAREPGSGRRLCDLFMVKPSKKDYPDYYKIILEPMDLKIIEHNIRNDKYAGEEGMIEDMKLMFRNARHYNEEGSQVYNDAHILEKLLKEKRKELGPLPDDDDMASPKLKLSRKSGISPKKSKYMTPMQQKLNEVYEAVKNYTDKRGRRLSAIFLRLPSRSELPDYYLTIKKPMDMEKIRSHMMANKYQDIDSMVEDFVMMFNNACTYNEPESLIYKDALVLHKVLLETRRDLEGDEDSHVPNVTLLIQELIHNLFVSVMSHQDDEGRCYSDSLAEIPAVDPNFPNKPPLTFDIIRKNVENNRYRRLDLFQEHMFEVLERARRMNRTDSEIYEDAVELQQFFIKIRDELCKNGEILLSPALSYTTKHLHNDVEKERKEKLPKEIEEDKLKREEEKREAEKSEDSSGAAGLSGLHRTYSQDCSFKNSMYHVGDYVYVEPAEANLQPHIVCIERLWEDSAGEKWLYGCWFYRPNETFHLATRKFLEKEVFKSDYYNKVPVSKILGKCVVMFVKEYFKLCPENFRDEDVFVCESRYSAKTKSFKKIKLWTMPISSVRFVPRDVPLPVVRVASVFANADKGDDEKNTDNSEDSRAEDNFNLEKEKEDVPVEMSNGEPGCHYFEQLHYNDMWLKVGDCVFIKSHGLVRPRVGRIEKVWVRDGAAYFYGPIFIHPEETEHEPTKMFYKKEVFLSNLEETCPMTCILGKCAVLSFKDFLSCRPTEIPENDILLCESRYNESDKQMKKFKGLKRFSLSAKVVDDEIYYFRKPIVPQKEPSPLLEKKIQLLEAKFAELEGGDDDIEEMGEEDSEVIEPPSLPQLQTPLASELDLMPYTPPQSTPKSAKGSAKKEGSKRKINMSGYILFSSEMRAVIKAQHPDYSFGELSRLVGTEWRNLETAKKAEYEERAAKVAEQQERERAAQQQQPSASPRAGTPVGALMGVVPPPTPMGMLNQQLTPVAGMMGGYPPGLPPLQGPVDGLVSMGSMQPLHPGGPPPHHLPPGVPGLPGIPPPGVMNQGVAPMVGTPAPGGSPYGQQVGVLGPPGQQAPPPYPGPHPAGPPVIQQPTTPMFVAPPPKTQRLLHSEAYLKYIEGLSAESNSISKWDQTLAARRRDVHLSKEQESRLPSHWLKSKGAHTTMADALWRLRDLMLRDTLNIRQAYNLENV
Sequence of Chromatin remodeling regulator CECR2 (Homo sapiens) (Q9BXF3 whole entry, looked up): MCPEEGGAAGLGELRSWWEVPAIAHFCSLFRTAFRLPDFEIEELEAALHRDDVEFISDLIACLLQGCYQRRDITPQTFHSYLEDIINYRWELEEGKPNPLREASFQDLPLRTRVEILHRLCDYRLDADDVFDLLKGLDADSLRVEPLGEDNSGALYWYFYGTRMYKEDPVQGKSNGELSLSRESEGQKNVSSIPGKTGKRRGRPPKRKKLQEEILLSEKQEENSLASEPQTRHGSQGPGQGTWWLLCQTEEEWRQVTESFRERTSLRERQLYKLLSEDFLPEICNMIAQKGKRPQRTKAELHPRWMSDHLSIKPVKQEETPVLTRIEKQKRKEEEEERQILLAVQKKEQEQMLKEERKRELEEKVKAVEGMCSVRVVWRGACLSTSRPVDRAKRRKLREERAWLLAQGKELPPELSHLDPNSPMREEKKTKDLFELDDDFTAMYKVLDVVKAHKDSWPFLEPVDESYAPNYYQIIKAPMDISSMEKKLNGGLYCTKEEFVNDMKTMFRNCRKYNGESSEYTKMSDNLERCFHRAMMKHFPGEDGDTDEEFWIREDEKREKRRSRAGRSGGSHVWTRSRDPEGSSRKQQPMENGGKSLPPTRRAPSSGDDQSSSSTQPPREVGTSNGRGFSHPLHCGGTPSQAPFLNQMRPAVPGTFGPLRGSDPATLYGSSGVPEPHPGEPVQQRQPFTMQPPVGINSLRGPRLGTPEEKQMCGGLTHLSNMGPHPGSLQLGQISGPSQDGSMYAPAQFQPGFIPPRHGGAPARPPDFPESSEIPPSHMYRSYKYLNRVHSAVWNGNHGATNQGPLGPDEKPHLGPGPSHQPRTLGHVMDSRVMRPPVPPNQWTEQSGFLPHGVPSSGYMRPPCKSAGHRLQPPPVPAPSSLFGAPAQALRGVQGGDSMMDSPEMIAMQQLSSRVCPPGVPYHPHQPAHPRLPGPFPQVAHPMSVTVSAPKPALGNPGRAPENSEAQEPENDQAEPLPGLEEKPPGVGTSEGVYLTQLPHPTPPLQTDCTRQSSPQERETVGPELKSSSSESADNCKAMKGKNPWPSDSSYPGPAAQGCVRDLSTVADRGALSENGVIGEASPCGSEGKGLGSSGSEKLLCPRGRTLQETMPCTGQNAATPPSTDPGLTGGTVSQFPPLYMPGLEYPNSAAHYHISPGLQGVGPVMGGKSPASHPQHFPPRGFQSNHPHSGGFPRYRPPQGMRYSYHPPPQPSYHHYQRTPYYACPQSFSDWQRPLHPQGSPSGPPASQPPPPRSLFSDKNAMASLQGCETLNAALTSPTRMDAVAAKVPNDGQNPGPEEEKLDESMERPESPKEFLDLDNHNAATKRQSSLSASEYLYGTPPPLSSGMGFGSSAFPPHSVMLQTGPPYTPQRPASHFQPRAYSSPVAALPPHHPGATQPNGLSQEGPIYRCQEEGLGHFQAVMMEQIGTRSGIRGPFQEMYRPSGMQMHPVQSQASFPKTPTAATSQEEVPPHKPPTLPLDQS
Sequence of Bromodomain-containing protein 7 (Homo sapiens) (Q9NPI1 whole entry): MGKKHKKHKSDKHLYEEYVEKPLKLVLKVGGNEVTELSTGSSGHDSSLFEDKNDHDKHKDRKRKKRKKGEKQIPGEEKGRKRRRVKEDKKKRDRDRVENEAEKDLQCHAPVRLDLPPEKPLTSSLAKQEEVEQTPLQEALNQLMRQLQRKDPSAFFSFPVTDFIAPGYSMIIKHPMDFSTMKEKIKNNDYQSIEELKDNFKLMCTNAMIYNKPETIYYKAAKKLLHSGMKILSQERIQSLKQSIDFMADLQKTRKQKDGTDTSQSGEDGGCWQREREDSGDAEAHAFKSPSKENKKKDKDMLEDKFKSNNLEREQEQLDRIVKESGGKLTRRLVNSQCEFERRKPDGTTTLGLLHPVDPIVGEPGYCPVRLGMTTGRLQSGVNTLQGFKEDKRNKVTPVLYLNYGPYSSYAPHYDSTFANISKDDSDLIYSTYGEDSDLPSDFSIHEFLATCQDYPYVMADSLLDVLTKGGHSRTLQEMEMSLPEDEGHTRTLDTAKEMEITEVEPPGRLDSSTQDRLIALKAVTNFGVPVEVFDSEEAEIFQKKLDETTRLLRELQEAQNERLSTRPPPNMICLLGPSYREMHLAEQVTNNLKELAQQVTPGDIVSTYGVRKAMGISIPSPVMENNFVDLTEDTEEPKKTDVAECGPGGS
Sequence of Nuclear body protein SP140-like protein (Homo sapiens) (Q9H930 whole entry): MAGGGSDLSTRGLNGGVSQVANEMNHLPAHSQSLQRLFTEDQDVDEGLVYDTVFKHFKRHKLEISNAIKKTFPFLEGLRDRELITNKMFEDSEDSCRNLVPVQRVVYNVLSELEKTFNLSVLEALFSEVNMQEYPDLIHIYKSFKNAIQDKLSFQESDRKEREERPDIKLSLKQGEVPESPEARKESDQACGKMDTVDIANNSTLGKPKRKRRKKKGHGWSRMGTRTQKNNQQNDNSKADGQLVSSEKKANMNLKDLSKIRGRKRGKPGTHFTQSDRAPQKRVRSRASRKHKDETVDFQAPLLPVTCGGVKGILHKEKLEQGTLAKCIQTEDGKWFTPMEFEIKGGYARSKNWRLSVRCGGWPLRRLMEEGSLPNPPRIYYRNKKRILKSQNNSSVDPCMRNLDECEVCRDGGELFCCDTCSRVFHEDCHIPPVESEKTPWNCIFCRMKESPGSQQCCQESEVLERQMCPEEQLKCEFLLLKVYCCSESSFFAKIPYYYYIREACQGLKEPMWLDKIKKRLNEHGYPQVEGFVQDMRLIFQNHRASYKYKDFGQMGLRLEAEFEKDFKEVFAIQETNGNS

inhibition [1]: 4.77% | inhibition [2]: 95.6% | inhibition (Peregrin (Homo sapiens) [3]; Compound concentration 1.25 uM): 1.84% | inhibition (Peregrin (Homo sapiens) [3]; Compound concentration 4.0 uM): 3.88% | ΔTm [4]: 0.14 °C | inhibition ([5]; Compound concentration 0.25 uM, Protein concentration 19.0 uM): 3.67% | inhibition ([5]; Compound concentration 0.25 uM, Protein concentration 20.0 uM): 7.02% | inhibition ([5]; Compound concentration 4.0 uM, Protein concentration 19.0 uM): 7.64% | inhibition [6]: 10.7% | inhibition [7]: 1.4% and 14.2% | ΔTm [8]: 0.17 °C | ΔTm [9]: 0.02 °C | ΔTm [10]: 0.35 °C | ΔTm [11]: -0.09 °C | ΔTm [12]: -0.45 °C | ΔTm [13]: -0.38 °C | ΔTm [14]: -0.02 °C | ΔTm [15]: 1.82 °C | ΔTm [16]: 0.01 °C | ΔTm [17]: 0.38 °C | ΔTm [18]: -0.14 °C | ΔTm [19]: 0.15 °C | ΔTm [20]: -0.26 °C | ΔTm [21]: -0.08 °C | ΔTm [22]: 10.1 °C and 10.7 °C | ΔTm [23]: 5.28 °C and 8.25 °C and 6.82 °C | ΔTm [24]: 0.06 °C | ΔTm [25]: 0.17 °C | ΔTm (Peregrin (Homo sapiens) [26]): -0.09 °C and 0.15 °C | ΔTm [27]: -0.05 °C | ΔTm [28]: -0.43 °C | ΔTm [29]: 0.82 °C | ΔTm [30]: 0.69 °C | ΔTm [31]: 0.17 °C | ΔTm [32]: 0.17 °C and -0.28 °C | ΔTm [33]: 0.03 °C | ΔTm [34]: -0.21 °C | ΔTm [35]: 0.09 °C | ΔTm [36]: 0.6 °C | ΔTm [37]: 0.15 °C and 0.13 °C | ΔTm [38]: -0.12 °C | ΔTm [39]: 0.16 °C | ΔTm [40]: 0.01 °C | ΔTm [41]: 0.76 °C | ΔTm [42]: 0.14 °C | ΔTm [43]: -0.48 °C | ΔTm [44]: 0.44 °C | ΔTm [45]: 0.16 °C | ΔTm [46]: 0.44 °C | ΔTm [47]: 0.96 °C | ΔTm [48]: 0.33 °C | ΔTm [49]: 1.22 °C | ΔTm [50]: 0.27 °C | ΔTm [51]: 0.24 °C | ΔTm [52]: -0.09 °C | ΔTm [53]: 0.2 °C | ΔTm (Peregrin (Homo sapiens) [54]): -0.19 °C
SMILES: Cc1cc(=O)n(C)c2cc(N3C(=O)CC[C@@H](NS(=O)(=O)CC(C)C)[C@@H]3c3ccc(Cl)cc3)ccc12
